The source of these data is patent US8217072B2, “Salinosporamides and methods for use thereof” (The Regents of the University of California, priority 2003, dated 2012).

Molecules are shown by their SMILES.

Data set [1] concerns Staphylococcus aureus (methecillin resistant). Put plainly: Antibacterial screening, Staphylococcus aureus. Format: cell-based. More on the design: key to IC50: NSA = no significant activity.
Data set [2] concerns Enterococcus faecium (vanomycin resistant). Put plainly: Antibacterial screening, Enterococcus faecium. The class given is cell-based. More on the design: key to IC50: NSA = no significant activity.
A short description of data set [3]: Solubility in organic solvents. The following applies: CHCl3, methanol, and other polar solvents like DMSO, acetone, acetonitrile, benzene, pyridine, N,N-dimethylformamide.
Data set [4] concerns Candida albicans(amphoterocin B resistant). Put plainly: Antifungal screening, Candida albicans (amphoterocin B resistant). The class given is cell-based. More on the design: key: NSA = no significant activity.

For the compound `C[C@@]12OC(=O)[C@]1([C@@H](O)[C@@H]1C=CCCC1)NC(=O)[C@@H]2CCCl` [Salinosporamide A], the antibacterial activity entry in data set [1] and in data set [2] was “no antibacterial activity” throughout. Besides, the IC50 entry in data set [1] (methecillin resistant), in data set [2] (vanomycin resistant) and in data set [4] was “NSA*” in each case. Besides, the solubility result in data set [3] is “soluble”.
